Legend:
Format in all cases: functional
SK-MEL-5 = assay: Cytotoxicity against Homo sapiens (human) SK-MEL-5 cells after 48 hr by SRB assay; settings: SK-MEL-5, 48 h
CAKI-1 = assay: Cytotoxicity against Homo sapiens (human) Caki1 cells after 48 hr by SRB assay; settings: CAKI-1, 48 h
BT-549 = assay: Cytotoxicity against Homo sapiens (human) BT549 cells after 48 hr by SRB assay; settings: BT-549, 48 h
UACC-62 = assay: Cytotoxicity against Homo sapiens (human) UACC62 cells after 48 hr by SRB assay; settings: UACC-62, 48 h
MDA-MB-468 = assay: Cytotoxicity against Homo sapiens (human) MDA-MB-468 cells assessed as cell growth at 10 uM after 48 hr by SRB assay relative to control; settings: MDA-MB-468, 48 h, read-out: Activity
DU-145 = assay: Cytotoxicity against Homo sapiens (human) DU145 cells after 48 hr by SRB assay; settings: DU-145, 48 h
OVCAR-4 = assay: Cytotoxicity against Homo sapiens (human) OVCAR4 cells assessed as cell growth at 10 uM after 48 hr by SRB assay relative to control; settings: OVCAR-4, 48 h, read-out: Activity
[1] = read-out: pLC50 (the source's name) (converted)

| SMILES | GI50 (SK-MEL-5) [µM] | LC50 (SK-MEL-5) [µM] | TGI (SK-MEL-5; read-out: pTGI) [µM] | GI50 (CAKI-1) [µM] | CC50 (CAKI-1; [1]) [µM] | TGI (CAKI-1; read-out: pTGI) [µM] | GI50 (BT-549) [µM] | LC50 (BT-549) [µM] | TGI (BT-549; read-out: pTGI (converted)) [µM] | GI50 (UACC-62) [µM] | CC50 (UACC-62; [1]) [µM] | TGI (UACC-62; read-out: pTGI (converted)) [µM] | growth at 10 µM (MDA-MB-468) [%] | GI50 (DU-145) [µM] | CC50 (DU-145; [1]) [µM] | TGI (DU-145; read-out: pTGI) [µM] | growth at 10 µM (OVCAR-4) [%] |
| --- | --- | --- | --- | --- | --- | --- | --- | --- | --- | --- | --- | --- | --- | --- | --- | --- | --- |
| COc1ccccc1CNC(=O)CSc1nc2ccccc2c2nc(=O)c(-c3ccccc3)nn12 | 2.69 | > 100 | > 100 | 1.91 | > 100 | > 100 | 2.14 | 74.1 | 3.98 | – | – | – | – | – | – | – | – |
| COc1ccc(-c2nn3c(SCC(=O)Nc4ccccc4Cl)nc4ccccc4c3nc2=O)cc1 | – | – | – | – | – | – | – | – | – | 2.75 | > 100 | 67.6 | 44.3 | 1.38 | > 100 | > 100 | 45 |

From ChEMBL document CHEMBL3045943, “Novel N-aryl(alkaryl)-2-[(3-R-2-oxo-2H-[1,2,4]triazino[2,3-c]quinazoline-6-yl)thio]acetamides: synthesis, cytotoxicity, anticancer activity, COMPARE analysis and docking” (2013)
